Values joined by “and” are separate entries in the source; they are usually repeats but may differ in a detail not shown here. Equal values may be shown once.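 The compound was tested at five concentrations on cells cultured in 96-well plates, with a 48-hour exposure period. Here, GI50 denotes the concentration required for 50% inhibition of growth. TGI is the concentration that stops growth completely.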
Columns and labels:
Experiment in all cases: DTP human tumour cell line panel, 48 h
DMS 273 small cell lung = test system: DMS 273 small cell lung
SF-268 CNS = test system: SF-268 CNS
DLD-1 colon = test system: DLD-1 colon
SN12C renal = test system: SN12C renal
UACC-257 melanoma = test system: UACC-257 melanoma
COLO 205 colon = test system: COLO 205 colon
SK-MEL-5 melanoma = test system: SK-MEL-5 melanoma
HCT-116 colon = test system: HCT-116 colon
LOX IMVI melanoma = test system: LOX IMVI melanoma
BT-549 breast = test system: BT-549 breast

Row | SMILES | GI50 (DMS 273 small cell lung) | TGI (DMS 273 small cell lung) [µM] | GI50 (SF-268 CNS) [µM] | TGI (SF-268 CNS) | GI50 (DLD-1 colon) [µM] | TGI (DLD-1 colon) [µM] | GI50 (SN12C renal) | TGI (SN12C renal) | GI50 (UACC-257 melanoma) [µM] | TGI (UACC-257 melanoma) [µM] | GI50 (COLO 205 colon) [µM] | TGI (COLO 205 colon) [µM] | GI50 (SK-MEL-5 melanoma) | TGI (SK-MEL-5 melanoma) | GI50 (HCT-116 colon) | TGI (HCT-116 colon) | GI50 (LOX IMVI melanoma) | TGI (LOX IMVI melanoma) [µM] | GI50 (BT-549 breast) | TGI (BT-549 breast)
1 | CCOC(=O)[CH-]C(=O)C12CC3CC(CC(C3)C1)C2.CCOC(=O)[CH-]C(=O)C12CC3CC(CC(C3)C1)C2.CC[O-].CC[O-].[Ti+4] | > 100 µM | > 100 | > 100 | > 100 µM | > 100 | > 100 | > 100 µM | > 100 µM | > 100 | > 100 | > 100 | > 100 | > 100 µM | > 100 µM | > 100 µM | > 100 µM | > 100 µM | > 100 |  | 
2 | N#CCC(=O)N/N=C1/C(=O)N(c2ccc(Cl)cc2)C(=O)C(=O)C1c1nc2ccccc2s1 (stereo not drawn) |  | > 100 |  | > 100 µM |  | > 100 |  | > 100 µM |  | > 100 |  | > 100 |  | > 100 µM |  | > 100 µM |  | > 100 |  | 
3 | O=C(Nc1cccc(O)c1)C(=O)C1C(=O)NC(=S)NC1=O |  | > 100 |  | > 100 µM |  | > 100 |  | > 100 µM |  | > 100 |  | > 100 |  | > 100 µM |  | > 100 µM |  | > 100 |  | 
4 | Cc1ccc(C)c(NC(=O)CC2Sc3ccccc3NC2=O)c1 (stereo not drawn) | 23.1 µM and 97 µM | > 100 |  | 26.1 µM and 74.2 µM | > 93.6 | > 100 | 19.5 µM and 44.7 µM | 33.4 µM and > 88.1 µM |  | > 97.1 |  | > 100 | 30.3 µM and 91.6 µM | 43.2 µM and > 100 µM | 15.9 µM and 36.9 µM | 25.2 µM and > 94.5 µM | 34.5 µM and > 81.5 µM | > 100 | 19.2 µM and 39 µM | 82.4 µM and > 95.8 µM
5 | NC(CCCC(N)P(=O)(O)O)P(=O)(O)O (stereo not drawn) |  | > 100 |  |  |  | > 100 |  | > 100 µM |  | > 100 |  | > 100 |  | > 100 µM |  | > 100 µM |  | > 100 |  | 
6 | O=C(Nc1ccc(C(F)(F)F)cc1[N+](=O)[O-])C(=O)C1NC(=S)NC1=O (stereo not drawn) |  | > 100 |  | > 100 µM |  | > 100 |  | 5.05 µM |  | > 100 |  | 26.6 |  | > 100 µM |  | > 100 µM |  | > 100 |  | 
7 | O=S(=O)(C1=CC(S(=O)(=O)c2ccccc2)CN(Cc2ccccc2)C1c1cccc2ccccc12)c1ccccc1 (stereo not drawn) |  | > 69 |  | > 69 µM |  | > 69 |  | > 69 µM |  | > 69 |  |  |  | > 69 µM |  | > 69 µM |  | > 69 |  | 
8 | O=C(NC(=O)c1c(F)cccc1F)Nc1cccc(Oc2ncc(Cl)cn2)c1 |  | > 100 |  | 77.3 µM |  | > 100 |  | > 100 µM |  | > 100 |  | > 100 |  | > 100 µM |  | > 100 µM |  | > 100 |  | > 100 µM
9 | CCCCCCCCCCCCCP(=O)(O)O |  | > 100 |  | > 100 µM |  | > 100 |  | > 100 µM |  | > 100 |  | > 100 |  | > 100 µM |  | > 100 µM |  | > 100 |  | 
10 | N[C@H](C(=O)O)[C@@H]1CC(Cl)=NO1 |  | 328 | 10.2 | > 848 µM |  | > 1000 | 53.7 µM | > 1000 µM | 84.8 | > 1000 | 43.6 | > 1000 | 8.51 µM | 493 µM | 3.71 µM | > 1000 µM | 3.28 µM | > 1000 | 7.4 µM | > 1000 µM
11 | O=C1C=C(Nc2ccccc2C(=O)CC(=O)C(=O)Nc2cccc([N+](=O)[O-])c2)c2ccccc2C1=O |  | > 100 |  | 88.6 µM |  | > 100 |  | 81.8 µM |  | 78.5 |  | > 100 |  | 26.3 µM |  | > 100 µM |  | 23.1 |  | 
12 | CNC(=O)OCc1nc(SSC(C)(C)C)n(C)c1COC(=O)NC |  | 17.3 |  | 16.7 µM |  | 3.18 |  | 13.7 µM |  | 7.64 |  | 3.28 |  | 16.5 µM |  | 3.26 µM |  | 8.61 |  | 2.83 µM
13 | CN(C)CCC(=O)N1C/C(=C\c2ccc(Cl)c(Cl)c2)C(=O)/C(=C/c2ccc(Cl)c(Cl)c2)C1 |  | 0.316 |  | 0.653 µM |  | 0.468 |  | 0.44 µM |  | 2.53 |  | 0.636 |  | 0.759 µM |  | 0.331 µM |  | 0.278 |  | 1.7 µM
14 | COc1ccc(C=O)cc1O[Si](C)(C)C(C)(C)C |  | > 100 |  | > 100 µM |  | > 100 |  | > 100 µM |  | > 100 |  | > 100 |  | > 100 µM |  | > 100 µM |  | > 100 |  | 
15 | CCCCCCCCCCCC(=O)OCCOCCOCCOCCOCCOC(=O)CCCCCCCCCCC |  | > 100 |  | > 100 µM |  | > 100 |  | > 100 µM |  | > 100 |  | > 100 |  | > 100 µM |  | > 100 µM |  | > 100 |  | 
16 | O=C1N/C(=C\[N+](=O)[O-])c2ccccc21 |  | > 100 |  | > 100 µM |  | > 100 |  | > 100 µM |  | > 100 |  | > 100 |  | > 100 µM |  | > 100 µM |  | > 100 |  | 
17 | NC1=NN(c2ccccc2)C(=O)C1C(=O)CCC(=O)Nc1cccc(Cl)c1 (stereo not drawn) |  | > 100 |  | > 100 µM |  | > 100 |  | > 100 µM |  | > 100 |  | > 100 |  | > 100 µM |  | > 100 µM |  | > 100 |  | 
18 | Cc1ccc(S(=O)(=O)OC2CC=CC2)cc1 |  | > 100 |  |  |  | > 100 |  | > 100 µM |  | > 100 |  | > 100 |  | > 100 µM |  | > 100 µM |  | > 100 |  | 

Reference: PubChem BioAssay (NCI)
